# Laboratory results published in article PMC10496123, “Potent Antifungal Activity of Penta-O-galloyl-β-D-Glucose against Drug-Resistant Candida albicans, Candida auris, and Other Non-albicans Candida Species” (ACS Infectious Diseases, 2023).
# Entries after “also recorded” stand apart in the source; their conditions may differ.
# Tests used:
# [1] = tested on: influenza A; design: method as in PMID 35033970; conditions: interference with viral replication; cited from earlier work
# [2] = tested on: rats; conditions: up to 120 mg/kg/day intravenously in rats; cited from earlier work
# [3] = tested on: MRSA (various strains); conditions: antibacterial; possibly iron chelation; cited from earlier work
# [4] = tested on: Acinetobacter baumanii; design: method as in PMID 32948818; conditions: 21 daily passages; cited from earlier work
# [5] = tested on: drug-sensitive C. albicans; assay: Growth inhibition in fungal growth media with 10% FBS; type: cell-based, Candida albicans; conditions: 10% fetal bovine serum; concentrations up to 512 μg mL^–1; data not shown
# [6] = tested on: C. albicans 90028; assay: Media supplementation (Mg, Ca, Mn, Zn) growth inhibition assay; type: cell-based, Candida albicans
# Description: For media supplementation experiments, magnesium sulfate (Alfa Aesar), manganese sulfate, zinc sulfate, and calcium chloride (Ward Science) were dissolved in RPMI-1640 media and, after 24 h, added at a final concentration of 1 mM. Growth inhibition was measured 24 h after media supplementation. Percent growth inhibition was determined by comparing treatments to vehicle controls. Media supplementation experiments were repeated in triplicate with four technical replicates per treatment and on different days. page 6: Figure S5. Effect of supplemental cations on growth inhibition of penta-O-galloyl- β-D-glucose against C. albicans. C. albicans.90028 was treated with PGG alone and in combination with 1 mM magnesium (Mg2+) or 1 mM calcium (Ca2+). The data are plotted as mean % growth inhibition ± SD as compared to vehicle controls from two independent experiments. Dotted line represents 90% growth inhibition. S6 (1 picture or pasted object on this page, not shown here) page 7: Figure S6. Effect of supplemental metal ions on growth inhibition of penta-O- galloyl-β-D-glucose against C. albicans. C. albicans 90028 was treated with PGG alone and in combination with 1 mM manganese (Mn2+) or 1 mM zinc (Zn2+). The data are plotted as mean % growth inhibition ± SD as compared to vehicle controls from two independent experiments . Dotted line represents 90% growth inhibition . Statistical analysis was done using 2 -way ANOVA with multiple comparisons. The symbol (*) […] S7 (1 picture or pasted object on this page, not shown here)
# [7] = tested on: C. auris CDC381; assay: Iron supplementation growth inhibition assay; type: cell-based, Candida auris; conditions: 10 mM iron (II) or iron (III); PGG 4–16 μg mL^–1; 48 h
# Description: For iron supplementation assays, growth inhibition assays were performed by microbroth dilution following the guidelines set by the CLSI.[58] A solution of iron (II) sulfate and iron (III) sulfate (VWR) was dissolved in deionized water to a concentration of 10 mM and added to treated wells at the beginning of incubation. Growth inhibition was measured after 48 h. Percent growth inhibition was determined by comparing treatments to vehicle controls. Iron supplementation experiments were repeated in duplicate with three technical replicates per treatment and on different days.
# [8] = tested on: Candida auris; assay: Growth inhibition by CLSI microbroth dilution; type: cell-based; conditions: Candidozyma auris, 48 h
# [9] = cited from earlier work
# [10] = tested on: C. albicans wild type (SN95, SN152) and ire1Δ/Δ, hap43Δ/Δ, rim101Δ/Δ; assay: microbe, parasite or virus in culture; type: cell-based, Candida albicans; conditions: for MIC90: Candida albicans, 48 h, 30 °C
# [11] = tested on: MDA-MB-468; design: method as in PMID 33707603; conditions: induction of apoptosis; cited from earlier work
# [12] = tested on: Candida glabrata; assay: Growth inhibition by CLSI microbroth dilution; type: cell-based; conditions: for IC50 / MIC: Nakaseomyces glabratus, 48 h; for IC50: >50% growth inhibition; for MIC: >90% growth inhibition
# [13] = tested on: SK-HEP-1 cells; design: method as in PMID 11675148; conditions: inhibition of proliferation; cited from earlier work
# [14] = LDH chemical-induced cytotoxicity; type: cell-based
# Description: Hek293 cells were purchased from BEI Resources. HaCaT cells were purchased from ATCC. HepG2 cells were provided by Dr. Edward Morgan (Emory University). Mammalian cell cultures were maintained in Dulbecco’s modified Eagle’s medium with L-glutamine and 4.5 g L^–1 glucose (Corning) supplemented with 10% fetal bovine serum (Avantor) and a 100× combination solution of 10,000 IU mL^–1 penicillin and 10,000 μg mL^–1 streptomycin (Corning) at 37 °C, 5% CO2. Mammalian cultures at 70–80% confluency were used for cell viability and cytotoxicity experiments.
# The mammalian culture was standardized to 4 × 10^3 cells per 100 μL. Cells were allowed to attach and incubate for 24 h before growth media was replaced with treatment media (PGG, 16–512 μg mL^–1) or an equivalent volume of the DMSO vehicle, followed by incubation for 24 h. Plates were then evaluated with an LDH cytotoxicity assay (G Biosciences) and processed according to the manufacturer’s protocol for chemical-induced cytotoxicity. Experiments were repeated in triplicate with three technical replicates per treatment and on different days.
# [15] = tested on: HT-29 cells; design: method as in PMID 27196315, PMID 29778287; conditions: inhibition of proliferation; cited from earlier work
smiles,measurement,setting,value
"O=C(OC[C@H]1O[C@@H](OC(=O)c2cc(O)c(O)c(O)c2)[C@H](OC(=O)c2cc(O)c(O)c(O)c2)[C@@H](OC(=O)c2cc(O)c(O)c(O)c2)[C@@H]1OC(=O)c1cc(O)c(O)c(O)c1)c1cc(O)c(O)c(O)c1 [PGG, penta-O-galloyl-β-D-glucose]",IC50/EC50,[1],5.3 µg/mL
same,Tolerability,[2],no ill effects
same,IC50/EC50,[3],16 to 32 µg/mL
same,Development of resistance,[4],did not develop resistance
same,Growth inhibition in serum-supplemented medium,[5],loss of growth inhibition
same,"Effect of cation treatment (calcium, magnesium) on growth inhibition",[6]; 1 mM Mg2+ or Ca2+,no significant effect
same,Effect of manganese supplementation on growth inhibition,"[6]; 1 mM Mn2+, at 0.5× MIC of PGG",minor effect
same,Effect of zinc supplementation on growth inhibition,[6]; 1 mM Zn2+,no effect
same,Reduction of the growth inhibitory activity on iron supplementation,[7],80–100%
same,MIC,"[8]; strain AR Bank #0381, >90% growth inhibition",0.25 µg/mL
same,IC50,"[8]; strain AR Bank #0387, >50% growth inhibition",0.5 µg/mL
same,MIC,"[8]; strain AR Bank #0387, >90% growth inhibition",1 µg/mL
same,IC50,"[8]; strain AR Bank #0390, >50% growth inhibition",4 µg/mL
same,MIC,"[8]; strain AR Bank #0390, >90% growth inhibition",8 µg/mL
same,Efflux ratio,[9],high efflux ratio
same,MIC90,[10]; Wild type (SN95),> 20 µg/mL
same,MIC90,[10]; Wild type (SN152),> 20 µg/mL
same,MIC90,[10]; hap43Δ/Δ,0.625 µg/mL
same,MIC90,[10]; ire1Δ/Δ,0.625 µg/mL
same,MIC90,[10]; rim101Δ/Δ,0.625 µg/mL
same,"Effect of deletion of IRE1, HAP43 and RIM101 on sensitivity",[10]; mutants versus wild type,hypersensitive; also recorded: hypersensitivity
same,IC50/EC50,[11],35.72 µM
same,IC50,[12]; strain AR Bank #0325,0.25 µg/mL
same,MIC,[12]; strain AR Bank #0325,0.5 µg/mL
same,IC50,[12]; strain AR Bank #0326,0.125 µg/mL
same,MIC,[12]; strain AR Bank #0326,0.25 µg/mL
same,MIC (range over strains),[12]; two strains of C. glabrata,0.25 to 0.5 μg mL^–1
same,IC50/EC50,[13],25 to 50 µM
same,CC50 at 24 h,"[14]; HaCaT cells (keratinocytes), HaCaT (human keratinocytes)",> 272 µM
same,CC50 at 24 h,"[14]; HaCaT cells (keratinocytes), HaCaT (human keratinocytes), serum-supplemented medium",> 256 µg/mL
same,CC50 at 24 h,"[14]; Hek293 cells (kidney), Hek293 (human kidney)",> 272 µM
same,CC50 at 24 h,"[14]; Hek293 cells (kidney), Hek293 (human kidney), serum-supplemented medium",> 256 µg/mL
same,CC50 at 24 h,"[14]; HepG2 cells (liver), HepG2 (human liver)",> 272 µM
same,CC50 at 24 h,"[14]; HepG2 cells (liver), HepG2 (human liver), serum-supplemented medium",> 256 µg/mL
same,IC50/EC50,[15],4.46 µM
